The source of these data is patent US10947272B2, “BACE1 inhibitor peptides” (HOFFMANN-LA ROCHE INC., priority 2015, dated 2021).

Structures can show the parent of a compound that is named as a salt. Where two headings read alike, the source gives them in different places. Numbered stars: 1 amine (or outer) side, 2 acyl side, 3 side chain; on linkers, the order of the positions; unused ones are H or OH. Square brackets hold non-standard residues; d marks the D form. Peptide text beside a SMILES is read from it. MetSta(3S,4S) = CSCC[C@H](N[*:1])[C@@H](O)CC(=O)[*:2]; Sta = CC(C)C[C@H](N)[C@@H](O)CC(=O)O; PEG4 = NCCOCCOCCOCCOCCC(=O)O

This test concerns the target T1, BACE1 (Homo sapiens, UniProt P56817).
T1 construct: Human HEK293 cells which are stably transfected with a vector expressing a cDNA of the human APP wt gene (APP695); endogenous in cells; host or cells: HEK293 (human), stably transfected with human APP695 wt cDNA
Nature of the test: Cellular Aβ-lowering assay (Aβ40 ELISA of culture supernatant). In kind it is cell-based. The following applies: HEK293 cells stably transfected with human APP wt (APP695), Aβ40 in supernatant. The method, then:
The compounds were investigated in accordance with the test given hereinafter. Cellular Aβ-Lowering Assay: Human HEK293 cells which are stably transfected with a vector expressing a cDNA of the human APP wt gene (APP695) were used to assess the potency of the compounds in a cellular assay. The cells were seeded in 96-well microtiter plates in cell culture medium (Iscove, plus 10% (v/v) fetal bovine serum, glutamine, penicillin/streptomycin) to about 80% confluence and the compounds were added at a 10× concentration in 1/10 volume of medium without FCS containing 8% DMSO (final concentration of DMSO was kept at 0.8% v/v). After 18-20 hrs incubation at 37° C. and 5% CO2 in a humidified incubator the culture supernatant was harvested for the determination of Aβ40 concentrations. 96 well ELISA plates (e.g., Nunc MaxiSorb) were coated with monoclonal antibody which specifically recognize the C-terminal end of Aβ40 (Brockhaus et al., NeuroReport 9, 1481-1486; 1998). After blocking of non-specific binding sites with e.g. 1% BSA and washing, the culture supernatants were added in suitable dilutions together with a horseradish peroxidase-coupled Aβ detection antibody (e.g., antibody 4G8, Senetek, Maryland Heights, Mo.) and incubated for 5 to 7 hrs. Subsequently the wells of the microtiter plate were washed extensively with Tris-buffered saline containing 0.05% Tween 20 and the assay was developed with tetramethylbenzidine/H2O2 in citric acid buffer. After stopping the reaction with one volume 1 N H2SO4 the reaction was measured in an ELISA reader at 450 nm wavelength. The concentrations of Aβ in the culture supernatants were calculated from a standard curve obtained with known amounts of pure Aβ peptide.
Background: In an ELISA, binding on a coated surface is turned into a signal by an enzyme label.

Where [1] appears, read: dual-site BACE1 inhibitors, 18-20 hrs incubation, read-out: IC 50.
Where [2] appears, read: exosite motifs alone, read-out: IC 50.

T1 sequence (P56817 46-501): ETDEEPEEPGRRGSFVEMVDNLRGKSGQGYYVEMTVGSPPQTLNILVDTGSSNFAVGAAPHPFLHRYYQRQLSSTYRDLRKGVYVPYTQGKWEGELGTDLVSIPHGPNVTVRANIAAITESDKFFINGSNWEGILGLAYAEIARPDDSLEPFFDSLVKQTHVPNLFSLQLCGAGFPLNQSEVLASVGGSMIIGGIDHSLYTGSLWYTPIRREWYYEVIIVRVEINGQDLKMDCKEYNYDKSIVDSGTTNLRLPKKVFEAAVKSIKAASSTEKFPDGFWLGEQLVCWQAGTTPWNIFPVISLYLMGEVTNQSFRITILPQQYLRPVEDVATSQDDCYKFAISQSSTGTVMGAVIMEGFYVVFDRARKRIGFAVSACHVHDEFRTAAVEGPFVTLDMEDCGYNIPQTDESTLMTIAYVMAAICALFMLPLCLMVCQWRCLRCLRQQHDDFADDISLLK

With `CC(C)C[C@H](NC(=O)[C@@H]1CCCN1C(=O)[C@@H](CCCCN)NC(=O)[C@H](Cc1ccccc1)NC(=O)[C@H](Cc1ccc(O)cc1)NC(=O)[C@@H]1CCCN1C(=O)[C@@H](N)Cc1ccc(O)cc1)C(=O)NCC(=O)N[C@H](CCCCN)C(=O)NCC(=O)N[C@@H](CCC(=O)O)C(=O)N[C@H](C(=O)N[C@@H](CC(N)=O)C(=O)N[C@@H](CC(C)C)[C@@H](O)CC(=O)N[C@H](C(=O)N[C@@H](C)C(=O)N[C@@H](CCC(=O)O)C(=O)N1CCC[C@@H]1C(N)=O)C(C)C)C(C)C` [Example 13, Tyr-Pro-Tyr-Phe-DLys-Pro-Leu-Gly-DLys-Gly-Glu-Val-Asn-Sta-Val-Ala-Glu-DPro-NH2 × 3TFA] (H-YPYF[dK]PLG[dK]GEVN[Sta]VAE[dP]-NH2), the IC50 under setting [1] is > 40 µM.
Regarding `CSCC[C@H](NC(=O)[C@H](CC(N)=O)NC(=O)[C@@H](NC(=O)[C@@H](N)CCC(=O)O)C(C)C)[C@@H](O)CC(=O)N[C@H](C(=O)N[C@@H](C)C(=O)N[C@@H](CCC(=O)O)C(=O)N[C@H](Cc1ccccc1)C(N)=O)C(C)C` [Example A2, Glu-Val-Asn-MetSta-Val-Ala-Glu-DPhe-NH2 × TFA, reference compound] (H-EVN[MetSta(3S,4S)]VAE[dF]-NH2), the IC50 (active site motifs alone, read-out: IC 50) is > 40 µM.
In the case of `CC[C@H](C)[C@H](NC(=O)[C@H](Cc1ccccc1)NC(=O)[C@H](Cc1ccc(O)cc1)NC(=O)[C@@H](CCCCN)NC(=O)[C@@H](N)Cc1ccc(O)cc1)C(=O)N1CCC[C@H]1C(=O)N[C@@H](CC(C)C)C(=O)NCC(=O)N[C@H](CCCCN)C(=O)NCC(=O)N[C@@H](CCC(=O)O)C(=O)N[C@H](C(=O)N[C@@H](CC(N)=O)C(=O)N[C@@H](CC(C)C)[C@@H](O)CC(=O)N[C@H](C(=O)N[C@@H](C)C(=O)N[C@@H](CCC(=O)O)C(=O)N1CCC[C@@H]1C(N)=O)C(C)C)C(C)C` [Example 31, H-Tyr-DLys-Tyr-Phe-Ile-Pro-Leu-Gly-DLys-Gly-Glu-Val-Asn-Sta-Val-Ala-Glu-DPro-NH2] (H-Y[dK]YFIPLG[dK]GEVN[Sta]VAE[dP]-NH2), the IC50 under setting [1] was > 40 µM.
With `CC(C)C[C@H](NC(=O)[C@@H]1CCCN1C(=O)[C@@H](CCCCN)NC(=O)[C@H](Cc1ccccc1)NC(=O)[C@H](Cc1ccc(O)cc1)NC(=O)[C@@H]1CCCN1C(=O)[C@@H](N)Cc1ccc(O)cc1)C(=O)NCCOCCOCCOCCOCCC(=O)N[C@@H](CCC(=O)O)C(=O)N[C@H](C(=O)N[C@@H](CC(N)=O)C(=O)N[C@@H](CC(C)C)[C@@H](O)CC(=O)N[C@H](C(=O)N[C@@H](C)C(=O)N[C@@H](CCC(=O)O)C(=O)N1CCC[C@@H]1C(N)=O)C(C)C)C(C)C` [Example 24, H-Tyr-Pro-Tyr-Phe-DLys-Pro-Leu-PEG(4)-Glu-Val-Asn-Sta-Val-Ala-Glu-DPro-NH2 × 2TFA] (H-YPYF[dK]PL[PEG4]EVN[Sta]VAE[dP]-NH2), the IC50 (IC 50, dual-site BACE1 inhibitors, 18-20 hrs incubation) was > 40 µM.
For `CC[C@H](C)[C@H](NC(=O)[C@H](Cc1ccccc1)NC(=O)[C@H](CCCCN)NC(=O)[C@@H]1CCCN1C(=O)[C@H](Cc1ccc(O)cc1)NC(=O)[C@H](CC(=O)O)NC(=O)CNC(C)=O)C(=O)N[C@@H](CO)C(=O)N[C@@H](C)C(=O)N[C@@H](CC(N)=O)C(N)=O` [Example E4, Ac-Gly-Asp-Tyr-Pro-Lys-Phe-Ile-Ser-Ala-Asn-NH2] (Ac-GDYPKFISAN-NH2), the IC50 under setting [2] is > 40 µM.
Turning to `CC(C)C[C@H](NC(=O)[C@@H](CCCCN)NC(=O)[C@H](Cc1ccccc1)NC(=O)[C@H](Cc1ccc(O)cc1)NC(=O)[C@@H]1CCCN1C(=O)[C@@H](N)Cc1ccc(O)cc1)C(=O)NCCOCCOCCOCCOCCC(=O)N[C@@H](CCC(=O)O)C(=O)N[C@H](C(=O)N[C@@H](CC(N)=O)C(=O)N[C@@H](CC(C)C)[C@@H](O)CC(=O)N[C@H](C(=O)N[C@@H](C)C(=O)N[C@@H](CCC(=O)O)C(=O)N1CCC[C@@H]1C(N)=O)C(C)C)C(C)C` [Example 23, H-Tyr-Pro-Tyr-Phe-DLys-Leu-PEG(4)-Glu-Val-Asn-Sta-Val-Ala-Glu-DPro-NH2 × 3TFA] (H-YPYF[dK]L[PEG4]EVN[Sta]VAE[dP]-NH2), the IC50 under setting [1] is > 40 µM.
Turning to `CC[C@H](C)[C@H](NC(=O)[C@H](Cc1ccccc1)NC(=O)[C@H](CCCCN)NC(=O)[C@@H]1CCCN1C(=O)[C@H](Cc1ccc(O)cc1)NC(=O)[C@H](CC(=O)O)NC(=O)CNC(C)=O)C(=O)N1CCC[C@H]1C(=O)N[C@@H](C)C(=O)N[C@@H](CO)C(N)=O` [Example E5, Ac-Gly-Asp-Tyr-Pro-Lys-Phe-Ile-Pro-Ala-Ser-NH2] (Ac-GDYPKFIPAS-NH2), under setting [2], the IC50 is > 40 µM.
On to `CC[C@H](C)[C@H](NC(=O)[C@H](Cc1ccccc1)NC(=O)[C@H](CCCNC(=N)N)NC(=O)[C@H](C)NC(=O)CNC(=O)[C@@H](NC(=O)[C@H](CO)NC(C)=O)[C@@H](C)O)C(=O)N1CCC[C@H]1C(=O)N[C@@H](C)C(=O)N[C@@H](CC(N)=O)C(N)=O` [Example E3, Ac-Ser-Thr-Gly-Ala-Arg-Phe-Ile-Pro-Ala-Asn-NH2] (Ac-STGARFIPAN-NH2), for which, under setting [2], the IC50 was > 40 µM.
The same measure, in the same setting: under `CC[C@H](C)[C@H](NC(=O)[C@H](Cc1ccccc1)NC(=O)[C@H](CCCCN)NC(=O)[C@@H]1CCCN1C(=O)[C@H](Cc1ccc(O)cc1)NC(=O)[C@H](CO)NC(=O)CNC(C)=O)C(=O)N[C@@H](CC(=O)O)C(=O)N[C@@H](C)C(=O)N[C@@H](CC(N)=O)C(N)=O` [Example E6, Ac-Gly-Ser-Tyr-Pro-Lys-Phe-Ile-Asp-Ala-Asn-NH2] (Ac-GSYPKFIDAN-NH2) stands > 40 µM.
Turning to `CC[C@H](C)[C@H](NC(=O)[C@H](Cc1ccccc1)NC(=O)[C@H](Cc1ccc(O)cc1)NC(=O)[C@@H]1CCCN1C(=O)[C@@H](N)Cc1ccc(O)cc1)C(=O)N1CCC[C@H]1C(=O)N[C@@H](CC(C)C)C(=O)NCC(=O)NCC(=O)NCC(=O)N[C@@H](CCC(=O)O)C(=O)N[C@H](C(=O)N[C@@H](CC(N)=O)C(=O)N[C@@H](CC(C)C)[C@@H](O)CC(=O)N[C@H](C(=O)N[C@@H](C)C(=O)N[C@@H](CCC(=O)O)C(=O)N1CCC[C@@H]1C(N)=O)C(C)C)C(C)C` [Example 2, Tyr-Pro-Tyr-Phe-Ile-Pro-Leu-Gly-Gly-Gly-Glu-Val-Asn-Sta-Val-Ala-Glu-DPro-NH2 × TFA], the IC50 under setting [1] is 0.42 µM.
The same measure, in the same setting: under `CC[C@H](C)[C@H](NC(=O)[C@H](Cc1ccccc1)NC(=O)[C@H](Cc1ccc(O)cc1)NC(=O)[C@@H]1CCCN1C(=O)[C@@H](N)Cc1ccc(O)cc1)C(=O)N[C@H](CCCCN)C(=O)N[C@@H](CC(C)C)C(=O)NCC(=O)N[C@H](CCCCN)C(=O)NCC(=O)N[C@@H](CCC(=O)O)C(=O)N[C@H](C(=O)N[C@@H](CC(N)=O)C(=O)N[C@@H](CC(C)C)[C@@H](O)CC(=O)N[C@H](C(=O)N[C@@H](C)C(=O)N[C@@H](CCC(=O)O)C(=O)N1CCC[C@@H]1C(N)=O)C(C)C)C(C)C` [Example 12, Tyr-Pro-Tyr-Phe-Ile-DLys-Leu-Gly-DLys-Gly-Glu-Val-Asn-Sta-Val-Ala-Glu-DPro-NH2 × 3TFA] (H-YPYFI[dK]LG[dK]GEVN[Sta]VAE[dP]-NH2) stands > 40 µM.
`CC(=O)N[C@@H](CCC(N)=O)C(=O)N[C@@H](CCC(N)=O)C(=O)N[C@@H](Cc1ccc(O)cc1)C(=O)N1CCC[C@H]1C(=O)N[C@@H](Cc1ccc(O)cc1)C(=O)N[C@@H](Cc1ccccc1)C(=O)N[C@@H](CCCCN)C(=O)N1CCC[C@H]1C(=O)N[C@@H](C)C(=O)N[C@@H](CC(N)=O)C(N)=O` [Example E1, Ae-Gln-Gln-Tyr-Pro-Tyr-Phe-Lys-Pro-Ala-Asn-NH2] (Ac-QQYPYFKPAN-NH2): the IC50 under setting [2] is > 40 µM.
Still for that read-out and setting: the figure for “YQTFKPANGS [Example E2, Ac-Tyr-Gln-Thr-Phe-Lys-Pro-Ala-Asn-Gly-Ser-NH2, exosite motif peptide tested alone]” is > 40 µM.
`CC[C@H](C)[C@H](NC(=O)[C@H](Cc1ccccc1)NC(=O)[C@H](Cc1ccc(O)cc1)NC(=O)[C@@H]1CCCN1C(=O)[C@@H](N)Cc1ccc(O)cc1)C(=O)N1CCC[C@H]1C(=O)N[C@H](CCCCN)C(=O)NCC(=O)N[C@H](CCCCN)C(=O)NCC(=O)N[C@@H](CCC(=O)O)C(=O)N[C@H](C(=O)N[C@@H](CC(N)=O)C(=O)N[C@@H](CCSC)[C@@H](O)CC(=O)N[C@H](C(=O)N[C@@H](C)C(=O)N[C@@H](CCC(=O)O)C(=O)N1CCC[C@H]1C(N)=O)C(C)C)C(C)C` [Example 18, Tyr-Pro-Tyr-Phe-Ile-Pro-DLys-Gly-DLys-Gly-Glu-Val-Asn-MetSta-Val-Ala-Glu-Pro-NH2 × 3TFA]: the IC50 under setting [1] worked out at 0.015 µM.
